Laboratory results from US20220041623A1, “INDOLE MACROCYCLIC DERIVATIVE, PREPARATION METHOD THEREOF AND APPLICATION THEREOF IN MEDICINE” (JIANGSU HENGRUI MEDICINE CO., LTD., priority 2018, published 2022).

Molecular target: T1, MCL-1 protein (Homo sapiens, UniProt Q07820)
T1 construct: Bim peptide bought from R&D, 3526/1 NA
Assay: MCL-1 protein binding experiment (HTRF, MCL-1/Bim)
Settings: for inhibition at up to 10 µM / Maximum inhibition rate (%): HTRF MCL-1/Bim binding, initial concentration 10 μM; for inhibition at up to 10 µM: read-out: Maximum inhibition rate (%); for Ki: HTRF, 0.1 nM His-MCL-1, 2.5 nM bio-Bim, room temperature
Protocol: The following method was used to determine the binding ability of the compound of the present invention to MCL-1 protein. The experimental method is briefly described as follows.
MCL-1 inhibitors can bind to MCL-1 protein to prevent the binding of MCL-1 to Bim protein. The experiment evaluates the binding ability of MCL-1 inhibitor to MCL-1 protein by detecting the binding of MCL-1 to Bim protein through HTRF method, and the activity of the compound was evaluated according to the Ki value.
The mixture was incubated at room temperature for 2 hours, followed by the detection of fluorescence signals at 620 nm and 665 nm by PHERAstar. The data was processed by GraphPad software.

T1 sequence (Q07820 171-327): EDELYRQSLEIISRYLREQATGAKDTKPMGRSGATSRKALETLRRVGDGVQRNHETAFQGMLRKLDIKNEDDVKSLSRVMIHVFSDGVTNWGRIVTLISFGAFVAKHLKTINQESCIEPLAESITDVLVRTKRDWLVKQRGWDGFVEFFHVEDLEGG

SMILES	inhibition at up to 10 µM	Ki	Maximum inhibition rate (%)	Maximum inhibition rate (%) (10 µM)
Cc1c2c(nn1C)CSCc1cc(n(C)n1)CSc1cc(c3ccccc3c1)OCCCn1c(C(=O)O)cc3c-2c(Cl)ccc31 (single isomer, unassigned) [Example 1-1, (Ra)-17-Chloro-5,13-14-trimethyl-28-oxa-2,9-dithia-5,6,12,13,24-pentaazaheptacyclo[27.7.1.1^4,7.0^11,15.0^16,21.0^20,24.0^30,35]octatriaconta-1(37),4(38),6,11,14,16,18,20,22,29,31,33,35-tridecaene-23-carboxylic acid]	100%	0.36 nM	–	–
Cc1c2c(nn1C)CSCc1cc(n(C)n1)CSc1cc(c3ccccc3c1)OCCCn1c(C(=O)O)cc3c-2c(Cl)ccc31 (single isomer, unassigned) [Example 1-2, (Sa)-17-Chloro-5,13-14-trimethyl-28-oxa-2,9-dithia-5,6,12,13,24-pentaazaheptacyclo[27.7.1.1^4,7.0^11,15.0^16,21.0^20,24.0^30,35]octatriaconta-1(37),4(38),6,11,14,16,18,20,22,29,31,33,35-tridecaene-23-carboxylic acid]	–	56 nM	100%	–
Cc1c(C(=O)O)n2c3ccc(Cl)c(c13)-c1c(nn(C)c1C)CSCc1cc(n(C)n1)CSc1cc(c3ccccc3c1)OCCC2 (single isomer, unassigned) [Example 2-2, (Sa)-17-Chloro-5,13,14,22-tetramethyl-28-oxa-2,9-dithia-5,6,12,13,24-pentaazaheptacyclo[27.7.1.1^4,7.0^11,15.0^16,21.0^20,24.0^30,35]octatriaconta-1(37),4(38),6,11,14,16,18,20,22,29,31,33,35-tridecaene-23-carboxylic acid]	–	65 nM	–	95%
Cc1c(C(=O)O)n2c3ccc(Cl)c(c13)-c1c(nn(C)c1C)CN(C)Cc1cc(n(C)n1)CSc1cc(c3ccccc3c1)OCCC2 (single isomer, unassigned) [Example 3-1, (Ra)-17-Chloro-5,9,13,14,22-pentamethyl-28-oxa-2-thia-5,6,9,12,13,24-hexaazaheptacyclo[27.7.1.1^4,7.0^11,15.0^16,21.0^20,24.0^30,35]octatriaconta-1(37),4(38),6,11,14,16,18,20,22,29,31,33,35-tridecaene-23-carboxylic acid]	100%	0.18 nM	–	–
Cc1c(C(=O)O)n2c3ccc(Cl)c(c13)-c1c(nn(C)c1C)CN(C)Cc1cc(n(C)n1)CSc1cc(c3ccccc3c1)OCCC2 (single isomer, unassigned) [Example 3-2, (Sa)-17-Chloro-5,9,13,14,22-pentamethyl-28-oxa-2-thia-5,6,9,12,13,24-hexaazaheptacyclo[27.7.1.1^4,7.0^11,15.0^16,21.0^20,24.0^30,35]octatriaconta-1(37),4(38),6,11,14,16,18,20,22,29,31,33,35-tridecaene-23-carboxylic acid]	–	14 nM	–	99%
Cc1c(C(=O)O)n2c3ccc(Cl)c(c13)-c1c(nn(C)c1C)CSCc1cc(n(C)n1)CSc1cc3c(c(c1)OCCC2)CCCC3 (single isomer, unassigned) [Example 7-2, (Sa)-17-Chloro-5,13,14,22-tetramethyl-28-oxa-2,9-dithia-5,6,12,13,24-pentaazaheptacyclo[27.7.1.1^4,7.0^11,15.0^16,21.0^20,24.0^30,35]octatriaconta-1(37),4(38),6,11,14,16,18,20,22,29,35-undecaene-23-carboxylic acid]	–	15 nM	–	100%
Cc1c(C(=O)O)n2c3ccc(Cl)c(c13)-c1c(nn(C)c1C)CSCc1cc(n(C)n1)CCc1cc3c(c(c1)OCCC2)CCCC3 (single isomer, unassigned) [Example 8-2, (Sa)-17-Chloro-5,13,14,22-tetramethyl-28-oxa-9-thia-5,6,12,13,24-pentaazaheptacyclo[27.7.1.1^4,7.0^11,15.0^16,21.0^20,24.0^30,35]octatriaconta-1(37),4(38),6,11,14,16,18,20,22,29,35-undecaene-23-carboxylic acid]	–	57 nM	–	98%
Cc1c(C(=O)O)n2c3ccc(Cl)c(c13)-c1c(nn(C)c1C)CSCc1cc(n(C)n1)CSc1cc(cc3c1CCC3)OCCC2 (single isomer, unassigned) [Example 12-2, (Sa)-17-Chloro-5,13,14,22-tetramethyl-28-oxa-2,9-dithia-5,6,12,13,24-pentaazaheptacyclo[27.6.1.1^4,7.0^11,15.0^16,21.0^20,24.0^30,35]heptatriaconta-1(36),4(37),6,11,14,16,18,20,22,29,31(35)-undecaene-23-carboxylic acid]	–	5.7 nM	100%	–
Cc1c(C(=O)O)n2c3ccc(Cl)c(c13)-c1c(nn(C)c1C)CSCc1cc(n(C)n1)CSc1cc3c(c(c1)OCCC2)CCC3 (single isomer, unassigned) [Example 13-2, (Sa)-17-Chloro-5,13,14,22-tetramethyl-28-oxa-2,9-dithia-5,6,12,13,24-pentaazaheptacyclo[27.6.1.1^4,7.0^11,15.0^16,21.0^20,24.0^30,34]heptatriaconta-1(36),4(37),6,11,14,16,18,20,22,29,34-undecaene-23-carboxylic acid]	–	4.4 nM	–	99%
CCc1c(C(=O)O)n2c3ccc(Cl)c(c13)-c1c(nn(C)c1C)CSCc1cc(n(C)n1)CSc1cc(c3ccccc3c1)OCCC2 (single isomer, unassigned) [Example 14-1, (Ra)-17-Chloro-22-ethyl-5,13-14-trimethyl-28-oxa-2,9-dithia-5,6,12,13,24-pentaazaheptacyclo[27.7.1.1^4,7.0^11,15.0^16,21.0^20,24.0^30,35]octatriaconta-1(37),4(38),6,11,14,16,18,20,22,29,31,33,35-tridecaene-23-carboxylic acid]	100%	0.32 nM	–	–
Cc1c2c(nn1C)CSCc1cc(n(C)n1)CSc1cc(c3ccccc3c1)OCCCn1c(C(=O)O)cc3c-2c(Cl)ccc31 [Example 1, 17-Chloro-5,13-14-trimethyl-28-oxa-2,9-dithia-5,6,12,13,24-pentaazaheptacyclo[27.7.1.1^4,7.0^11,15.0^16,21.0^20,24.0^30,35]octatriaconta-1(37),4(38),6,11,14,16,18,20,22,29,31,33,35-tridecaene-23-carboxylic acid]	100%	2.39 nM	–	–
Cc1c(C(=O)O)n2c3ccc(Cl)c(c13)-c1c(nn(C)c1C)CSCc1cc(n(C)n1)CSc1cc(c3ccccc3c1)OCCC2 [Example 2, 17-Chloro-5,13,14,22-tetramethyl-28-oxa-2,9-dithia-5,6,12,13,24-pentaazaheptacyclo[27.7.1.1^4,7.0^11,15.0^16,21.0^20,24.0^30,35]octatriaconta-1(37),4(38),6,11,14,16,18,20,22,29,31,33,35-tridecaene-23-carboxylic acid]	99%	0.18 nM	–	–
Cc1c(C(=O)O)n2c3ccc(Cl)c(c13)-c1c(nn(C)c1C)CN(C)Cc1cc(n(C)n1)CSc1cc(c3ccccc3c1)OCCC2 [Example 3, 17-Chloro-5,9,13,14,22-pentamethyl-28-oxa-2-thia-5,6,9,12,13,24-hexaazaheptacyclo[27.7.1.1^4,7.0^11,15.0^16,21.0^20,24.0^30,35]octatriaconta-1(37),4(38),6,11,14,16,18,20,22,29,31,33,35-tridecaene-23-carboxylic acid]	100%	0.6 nM	–	–
Cc1c(C(=O)O)n2c3ccc(Cl)c(c13)-c1c(nn(C)c1C)CSCc1cc(n(C)n1)CCc1cc(c3ccccc3c1)OCCC2 [Example 4, 17-Chloro-5,13,14,22-tetramethyl-28-oxa-9-thia-5,6,12,13,24-pentaazaheptacyclo[27.7.1.1^4,7.0^11,15.0^16,21.0^20,24.0^30,35]octatriaconta-1(37),4(38),6,11,14,16,18,20,22,29,31,33,35-tridecaene-23-carboxylic acid]	99%	1.35 nM	–	–
Cc1cc2cc(c1)SCc1cc(nn1C)CN(C)Cc1nn(C)c(C)c1-c1c(Cl)ccc3c1c(C)c(C(=O)O)n3CCCO2 [Example 5, 17-Chloro-5,9,13,14,22,31-hexamethyl-28-oxa-2-thia-5,6,9,12,13,24-hexaazahexacyclo[27.3.1.1^4,7.0^11,15.0^16,21.0^20.24]tetratriaconta-1(33),4(34),6,11,14,16,18,20,22,29,31-undecaene-23-carboxylic acid]	99%	4.8 nM	–	–
Cc1cc2cc(c1)SCc1cc(nn1C)CSCc1nn(C)c(C)c1-c1c(Cl)ccc3c1c(C)c(C(=O)O)n3CCCO2 [Example 6, 17-Chloro-5,13,14,22,31-pentamethyl-28-oxa-2,9-dithia-5,6,12,13,24-pentaazahexacyclo[27.3.1.1^4,7.0^11,15.0^16,21.0^20,24]tetratriaconta-1(33),4(34),6,11,14,16,18,20,22,29,31-undecaene-23-carboxylic acid]	98%	1.9 nM	–	–
Cc1c(C(=O)O)n2c3ccc(Cl)c(c13)-c1c(nn(C)c1C)CSCc1cc(n(C)n1)CSc1cc3c(c(c1)OCCC2)CCCC3 [Example 7, 17-Chloro-5,13,14,22-tetramethyl-28-oxa-2,9-dithia-5,6,12,13,24-pentaazaheptacyclo[27.7.1.1^4,7.0^11,15.0^16,21.0^20,24.0^30,35]octatriaconta-1(37),4(38),6,11,14,16,18,20,22,29,35-undecaene-23-carboxylic acid]	99%	0.71 nM	–	–
